Source: BigSolDB 2.1

Brc1sc(Br)c(Br)c1Br
solubility (mole fraction)
Settings | in THF | in chloroform | in ethanol | in ethyl acetate | in ethyl formate | in methanol | in n-butanol | in n-propanol | in toluene
278.05 K | 0.0405 | 0.02 | – | 0.00809 | 0.00389 | – | 0.00267 | – | 0.027
281.25 K | 0.0436 | 0.0229 | 0.00149 | 0.00924 | 0.00451 | 0.000395 | 0.00295 | 0.00219 | 0.0314
286.15 K | 0.0469 | 0.0269 | 0.00165 | 0.0109 | 0.00546 | 0.000465 | 0.00369 | 0.00256 | 0.0358
290.15 K | 0.0511 | 0.0302 | 0.0018 | 0.0124 | 0.00632 | 0.000517 | 0.00433 | 0.00287 | 0.04
293.15 K | 0.0538 | 0.0334 | 0.002 | 0.0137 | 0.00705 | 0.000567 | 0.0048 | 0.00319 | 0.044
297.15 K | 0.0572 | 0.039 | 0.00221 | 0.0154 | 0.00809 | 0.000646 | 0.0054 | 0.00364 | 0.0486
302.15 K | 0.0625 | 0.0455 | 0.00267 | 0.0183 | 0.00969 | 0.00076 | 0.00636 | 0.00433 | 0.0554
307.15 K | 0.0685 | 0.0536 | 0.0031 | 0.0216 | 0.0118 | 0.000896 | 0.0077 | 0.00514 | 0.0626
311.65 K | 0.0738 | 0.0629 | 0.00356 | 0.0249 | 0.0138 | 0.00103 | 0.00895 | 0.00584 | 0.0713
315.65 K | 0.0788 | 0.0687 | 0.00404 | 0.0279 | 0.0154 | 0.0012 | 0.0102 | 0.0067 | 0.0756
320.15 K | 0.0843 | 0.0781 | 0.00475 | 0.0326 | 0.0174 | 0.00144 | 0.0118 | 0.00812 | 0.0834
325.15 K | – | – | 0.00566 | – | – | 0.00169 | – | 0.00965 | –
